Earlier results as cited in patent US20060093222A1, “Data processing, analysis, and visualization system for use with disparate data types” (priority 1999, published 2006).

Columns and labels:
[1] = test system: stroke patients
[2] = test system: Bacillus subtilis and Bacillus cereus; conditions: liquid and semi-solid substrates, aerobic and anaerobic

| Compound | additional patients normal or nearly normal 3 months after their stroke ([1]; for every 100 stroke patients treated with t-PA) | rate of fatal ICH ([1]; t-PA therapy, stroke patients) | rate of symptomatic intracerebral hemorrhage (ICH) ([1]; t-PA therapy, stroke patients) | anti-sporulation effect [2] |
| --- | --- | --- | --- | --- |
| Tissue plasminogen activator [t-PA] | 11-13 | 3% | 6% | – |
| O=S(O)S(=O)(=O)O [metabisulphite] | – | – | – | effective anti-sporulation agent |
